Measurements as given in US20100137449A1, “SUBSTITUTED 1,3-CYCLOPENTADIONE MULTI-TARGET PROTEIN KINASE MODULATORS OF CANCER, ANGIOGENESIS AND THE INFLAMMATORY PATHWAYS ASSOCIATED THEREWITH” (METAPROTEOMICS, LLC, priority 2007, published 2010).

Key:
Assay in all cases: KinaseProfiler Assay
[1] = biological target: CLK2(h) (Homo sapiens, UniProt P49760)
[2] = biological target: MLCK(h)
[3] = biological target: PKCγ(h) (Homo sapiens, UniProt P05129)
[4] = biological target: T1, DCAMKL2(h) (Homo sapiens, UniProt Q8N568)
T1 sequence (Q8N568 1-766): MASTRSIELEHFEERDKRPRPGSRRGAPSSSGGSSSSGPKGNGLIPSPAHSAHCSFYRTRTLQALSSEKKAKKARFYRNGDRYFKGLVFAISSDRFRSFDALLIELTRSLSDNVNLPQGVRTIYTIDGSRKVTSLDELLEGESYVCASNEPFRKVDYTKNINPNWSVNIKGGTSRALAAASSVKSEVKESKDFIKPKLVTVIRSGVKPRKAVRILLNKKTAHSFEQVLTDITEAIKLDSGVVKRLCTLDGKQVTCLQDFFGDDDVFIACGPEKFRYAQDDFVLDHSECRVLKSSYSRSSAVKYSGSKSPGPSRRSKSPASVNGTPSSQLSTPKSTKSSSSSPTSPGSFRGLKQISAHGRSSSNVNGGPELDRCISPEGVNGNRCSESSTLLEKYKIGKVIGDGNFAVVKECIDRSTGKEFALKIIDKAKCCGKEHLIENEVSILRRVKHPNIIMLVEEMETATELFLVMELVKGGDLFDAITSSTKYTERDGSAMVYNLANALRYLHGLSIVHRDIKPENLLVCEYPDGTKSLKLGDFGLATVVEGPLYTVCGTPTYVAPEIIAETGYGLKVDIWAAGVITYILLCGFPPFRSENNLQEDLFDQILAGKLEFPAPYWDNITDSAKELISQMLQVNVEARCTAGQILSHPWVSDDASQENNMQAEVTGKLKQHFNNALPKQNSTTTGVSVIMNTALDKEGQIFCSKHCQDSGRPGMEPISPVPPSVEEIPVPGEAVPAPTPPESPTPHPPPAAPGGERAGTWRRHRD

[5] = biological target: PDGFRα(D842V)(h) (Homo sapiens, UniProt P16234, D842V)
Chain of PDGFRα(D842V)(h) (P16234 24-1089 D842V): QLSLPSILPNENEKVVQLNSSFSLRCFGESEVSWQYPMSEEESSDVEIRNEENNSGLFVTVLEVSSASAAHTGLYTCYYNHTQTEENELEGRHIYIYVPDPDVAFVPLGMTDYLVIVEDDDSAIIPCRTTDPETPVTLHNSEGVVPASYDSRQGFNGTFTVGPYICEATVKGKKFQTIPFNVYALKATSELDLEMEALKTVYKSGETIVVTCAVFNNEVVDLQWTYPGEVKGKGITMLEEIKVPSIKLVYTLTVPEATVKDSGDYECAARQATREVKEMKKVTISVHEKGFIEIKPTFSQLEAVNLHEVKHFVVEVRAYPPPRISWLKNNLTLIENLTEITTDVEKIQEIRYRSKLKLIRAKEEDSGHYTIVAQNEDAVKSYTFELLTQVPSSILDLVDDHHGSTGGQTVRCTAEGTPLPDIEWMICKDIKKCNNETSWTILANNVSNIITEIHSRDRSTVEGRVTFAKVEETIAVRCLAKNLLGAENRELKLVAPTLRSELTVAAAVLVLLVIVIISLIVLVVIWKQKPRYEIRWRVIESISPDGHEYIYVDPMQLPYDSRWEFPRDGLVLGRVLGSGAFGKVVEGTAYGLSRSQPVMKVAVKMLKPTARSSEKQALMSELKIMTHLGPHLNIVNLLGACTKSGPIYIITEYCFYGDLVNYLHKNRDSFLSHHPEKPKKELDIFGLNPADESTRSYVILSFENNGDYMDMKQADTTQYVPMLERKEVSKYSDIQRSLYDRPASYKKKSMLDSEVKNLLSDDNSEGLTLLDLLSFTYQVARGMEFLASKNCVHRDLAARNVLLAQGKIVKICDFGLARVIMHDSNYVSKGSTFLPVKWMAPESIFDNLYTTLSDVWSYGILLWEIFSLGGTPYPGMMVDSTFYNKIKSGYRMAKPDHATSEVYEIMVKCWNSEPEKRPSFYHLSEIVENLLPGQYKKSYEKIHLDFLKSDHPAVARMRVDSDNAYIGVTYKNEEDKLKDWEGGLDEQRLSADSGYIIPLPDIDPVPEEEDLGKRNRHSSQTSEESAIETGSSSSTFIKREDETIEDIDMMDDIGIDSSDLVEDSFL

[6] = biological target: CK1(y)
[7] = biological target: CDK2/cyclinE(h) (Homo sapiens, UniProt P24941)
[8] = biological target: BTK(h) (Homo sapiens, UniProt Q06187)
Chain of BTK(h) (Q06187 whole entry): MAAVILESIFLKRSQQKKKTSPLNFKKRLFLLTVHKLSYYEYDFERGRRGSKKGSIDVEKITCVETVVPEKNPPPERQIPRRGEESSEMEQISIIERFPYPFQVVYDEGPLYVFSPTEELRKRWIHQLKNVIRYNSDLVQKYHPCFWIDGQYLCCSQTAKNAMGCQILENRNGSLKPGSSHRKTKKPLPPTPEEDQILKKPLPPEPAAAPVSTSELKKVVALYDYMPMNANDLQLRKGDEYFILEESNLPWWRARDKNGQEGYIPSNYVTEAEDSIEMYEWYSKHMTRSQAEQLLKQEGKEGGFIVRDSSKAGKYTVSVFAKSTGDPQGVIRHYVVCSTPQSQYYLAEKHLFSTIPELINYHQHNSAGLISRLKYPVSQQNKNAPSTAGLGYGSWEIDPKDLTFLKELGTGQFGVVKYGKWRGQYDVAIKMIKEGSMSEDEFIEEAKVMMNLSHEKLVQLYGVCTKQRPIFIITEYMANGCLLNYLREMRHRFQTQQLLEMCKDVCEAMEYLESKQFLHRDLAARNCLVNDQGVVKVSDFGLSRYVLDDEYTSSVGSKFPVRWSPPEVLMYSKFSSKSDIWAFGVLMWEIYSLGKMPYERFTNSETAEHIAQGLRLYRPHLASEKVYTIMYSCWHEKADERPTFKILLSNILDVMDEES

[9] = biological target: T2, PDK1(h) (Homo sapiens, UniProt O15530)
T2 sequence (O15530 1-556): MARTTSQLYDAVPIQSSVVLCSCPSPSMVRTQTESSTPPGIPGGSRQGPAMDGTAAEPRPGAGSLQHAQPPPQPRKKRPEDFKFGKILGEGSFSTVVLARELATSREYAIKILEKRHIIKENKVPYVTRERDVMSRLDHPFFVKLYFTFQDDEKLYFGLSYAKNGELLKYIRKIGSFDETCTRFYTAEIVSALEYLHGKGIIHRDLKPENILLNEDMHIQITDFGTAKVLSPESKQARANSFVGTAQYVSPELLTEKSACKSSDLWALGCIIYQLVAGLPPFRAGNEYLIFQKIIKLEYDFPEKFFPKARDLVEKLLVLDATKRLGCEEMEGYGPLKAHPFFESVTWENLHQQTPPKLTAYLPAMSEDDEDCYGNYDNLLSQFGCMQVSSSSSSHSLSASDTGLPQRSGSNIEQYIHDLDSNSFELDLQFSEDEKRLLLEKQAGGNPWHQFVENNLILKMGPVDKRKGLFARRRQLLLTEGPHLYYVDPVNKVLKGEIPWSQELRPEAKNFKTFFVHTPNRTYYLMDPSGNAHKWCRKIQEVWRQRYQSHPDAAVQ

[10] = biological target: Blk(m) (Mus musculus, UniProt P16277)
Chain of Blk(m) (P16277 whole entry): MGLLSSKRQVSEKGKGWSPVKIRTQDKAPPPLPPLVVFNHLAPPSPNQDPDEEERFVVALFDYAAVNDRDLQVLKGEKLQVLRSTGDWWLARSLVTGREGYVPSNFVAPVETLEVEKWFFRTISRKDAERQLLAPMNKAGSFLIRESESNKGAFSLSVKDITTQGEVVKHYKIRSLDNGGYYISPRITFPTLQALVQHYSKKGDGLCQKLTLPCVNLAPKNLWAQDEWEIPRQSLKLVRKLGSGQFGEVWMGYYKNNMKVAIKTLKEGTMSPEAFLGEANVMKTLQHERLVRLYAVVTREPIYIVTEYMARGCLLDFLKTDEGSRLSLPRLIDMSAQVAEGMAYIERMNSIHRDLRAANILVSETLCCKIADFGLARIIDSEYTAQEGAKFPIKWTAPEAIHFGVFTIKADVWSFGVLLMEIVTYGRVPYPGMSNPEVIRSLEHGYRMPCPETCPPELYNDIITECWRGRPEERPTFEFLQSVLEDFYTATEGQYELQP

[11] = biological target: MRCKα(h) (Homo sapiens, UniProt Q5VT25)
[12] = biological target: TrkB(h) (Homo sapiens, UniProt Q16620)
Chain of TrkB(h) (Q16620 32-822): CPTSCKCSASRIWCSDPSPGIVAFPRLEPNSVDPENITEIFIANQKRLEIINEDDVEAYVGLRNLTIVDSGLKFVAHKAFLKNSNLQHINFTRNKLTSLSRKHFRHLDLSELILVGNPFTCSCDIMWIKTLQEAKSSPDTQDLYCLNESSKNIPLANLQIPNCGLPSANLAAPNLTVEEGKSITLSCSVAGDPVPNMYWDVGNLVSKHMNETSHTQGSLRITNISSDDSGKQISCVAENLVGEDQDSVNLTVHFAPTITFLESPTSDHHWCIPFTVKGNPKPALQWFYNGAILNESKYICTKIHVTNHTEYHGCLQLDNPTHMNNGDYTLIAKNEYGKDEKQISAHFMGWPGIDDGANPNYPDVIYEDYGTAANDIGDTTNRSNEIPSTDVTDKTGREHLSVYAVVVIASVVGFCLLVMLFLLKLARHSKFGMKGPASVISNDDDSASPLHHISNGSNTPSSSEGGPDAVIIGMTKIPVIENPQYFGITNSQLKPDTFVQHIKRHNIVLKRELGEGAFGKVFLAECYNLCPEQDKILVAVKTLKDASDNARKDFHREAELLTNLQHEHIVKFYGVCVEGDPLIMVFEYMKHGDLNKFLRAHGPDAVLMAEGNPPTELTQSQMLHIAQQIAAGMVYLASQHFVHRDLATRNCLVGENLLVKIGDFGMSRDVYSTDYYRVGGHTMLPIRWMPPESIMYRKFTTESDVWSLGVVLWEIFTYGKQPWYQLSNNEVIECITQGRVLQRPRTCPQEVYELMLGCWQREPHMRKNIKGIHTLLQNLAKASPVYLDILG

Chain of CLK2(h) (P49760 whole entry): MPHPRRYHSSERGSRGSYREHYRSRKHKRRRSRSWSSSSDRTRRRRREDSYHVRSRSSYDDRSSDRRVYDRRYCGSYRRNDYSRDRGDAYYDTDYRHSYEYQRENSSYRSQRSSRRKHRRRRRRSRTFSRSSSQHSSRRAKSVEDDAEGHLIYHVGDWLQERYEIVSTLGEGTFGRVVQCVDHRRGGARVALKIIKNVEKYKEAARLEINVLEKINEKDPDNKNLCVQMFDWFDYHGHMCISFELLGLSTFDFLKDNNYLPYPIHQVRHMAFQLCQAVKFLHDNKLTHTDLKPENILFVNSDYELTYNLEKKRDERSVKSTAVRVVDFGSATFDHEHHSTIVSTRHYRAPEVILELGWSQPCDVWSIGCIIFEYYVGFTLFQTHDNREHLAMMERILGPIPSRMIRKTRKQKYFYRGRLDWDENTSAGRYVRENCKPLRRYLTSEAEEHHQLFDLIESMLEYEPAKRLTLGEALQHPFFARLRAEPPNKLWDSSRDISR

Which kinase inhibition ([1]; 1 μg/ml) does the source give for `CC(C)CCC(=O)[C@]1(O)C(O)=C(C(=O)C(C)C)C(=O)[C@H]1CCC(C)C` [TH2, tetrahydroiso-cohumulone] here?
Its kinase inhibition is 103% of control.

And the kinase inhibition ([1]; 5 μg/ml)?
The kinase inhibition was 100% of control.

And the kinase inhibition ([1]; 25 μg/ml)?
Its kinase inhibition is 110% of control.

What about the kinase inhibition ([1]; 50 μg/ml) of the same molecule?
Its kinase inhibition is 101% of control.

What about the kinase inhibition ([1]; 100 μg/ml) of the same molecule?
The kinase inhibition was 96% of control.

And the kinase inhibition ([2]; 1 μg/ml)?
Its kinase inhibition is 98% of control.

What about the kinase inhibition ([2]; 5 μg/ml) of the same molecule?
The kinase inhibition was 96% of control.

And the kinase inhibition ([2]; 25 μg/ml)?
Its kinase inhibition is 105% of control.

And the kinase inhibition ([2]; 50 μg/ml)?
The kinase inhibition was 93% of control.

And the kinase inhibition ([2]; 100 μg/ml)?
Its kinase inhibition is 86% of control.

What about the kinase inhibition ([3]; 1 μg/ml) of the same molecule?
The kinase inhibition was 102% of control.

And the kinase inhibition ([3]; 5 μg/ml)?
The kinase inhibition was 107% of control.

What about the kinase inhibition ([3]; 25 μg/ml) of the same molecule?
Its kinase inhibition is 101% of control.

What about the kinase inhibition ([3]; 50 μg/ml) of the same molecule?
Its kinase inhibition is 91% of control.

And the kinase inhibition ([3]; 100 μg/ml)?
Its kinase inhibition is 99% of control.

And the kinase inhibition ([4]; 1 μg/ml)?
Its kinase inhibition is 96% of control.

And the kinase inhibition ([4]; 5 μg/ml)?
Its kinase inhibition is 100% of control.

What about the kinase inhibition ([4]; 25 μg/ml) of the same molecule?
The kinase inhibition was 110% of control.

What about the kinase inhibition ([4]; 50 μg/ml) of the same molecule?
The kinase inhibition was 96% of control.

And the kinase inhibition ([4]; 100 μg/ml)?
The kinase inhibition was 86% of control.

And the kinase inhibition ([5]; 1 μg/ml)?
The kinase inhibition was 113% of control.

What about the kinase inhibition ([5]; 5 μg/ml) of the same molecule?
The kinase inhibition was 124% of control.

What about the kinase inhibition ([5]; 25 μg/ml) of the same molecule?
The kinase inhibition was 128% of control.

And the kinase inhibition ([5]; 50 μg/ml)?
Its kinase inhibition is 129% of control.

What about the kinase inhibition ([5]; 100 μg/ml) of the same molecule?
The kinase inhibition was 127% of control.

What about the kinase inhibition ([6]; 25 μg/ml) of the same molecule?
Its kinase inhibition is 110% of control.

And the kinase inhibition ([6]; 50 μg/ml)?
Its kinase inhibition is 110% of control.

What about the kinase inhibition ([6]; 100 μg/ml) of the same molecule?
Its kinase inhibition is 100% of control.

And the kinase inhibition ([7]; 1 μg/ml)?
The kinase inhibition was 95% of control.

What about the kinase inhibition ([7]; 5 μg/ml) of the same molecule?
Its kinase inhibition is 101% of control.

What about the kinase inhibition ([7]; 25 μg/ml) of the same molecule?
The kinase inhibition was 93% of control.

What about the kinase inhibition ([7]; 50 μg/ml) of the same molecule?
The kinase inhibition was 71% of control.

And the kinase inhibition ([7]; 100 μg/ml)?
The kinase inhibition was 54% of control.

And the kinase inhibition ([8]; 1 μg/ml)?
The kinase inhibition was 98% of control.

What about the kinase inhibition ([8]; 5 μg/ml) of the same molecule?
The kinase inhibition was 96% of control.

What about the kinase inhibition ([8]; 25 μg/ml) of the same molecule?
Its kinase inhibition is 67% of control.

And the kinase inhibition ([8]; 50 μg/ml)?
Its kinase inhibition is 59% of control.

And the kinase inhibition ([8]; 100 μg/ml)?
Its kinase inhibition is 47% of control.

And the kinase inhibition ([9]; 1 μg/ml)?
Its kinase inhibition is 122% of control.

And the kinase inhibition ([9]; 5 μg/ml)?
The kinase inhibition was 123% of control.

And the kinase inhibition ([9]; 25 μg/ml)?
Its kinase inhibition is 102% of control.

What about the kinase inhibition ([9]; 50 μg/ml) of the same molecule?
Its kinase inhibition is 87% of control.

What about the kinase inhibition ([9]; 100 μg/ml) of the same molecule?
The kinase inhibition was 69% of control.

What about the kinase inhibition ([10]; 1 μg/ml) of the same molecule?
Its kinase inhibition is 108% of control.

And the kinase inhibition ([10]; 5 μg/ml)?
The kinase inhibition was 115% of control.

And the kinase inhibition ([10]; 25 μg/ml)?
The kinase inhibition was 96% of control.

What about the kinase inhibition ([10]; 50 μg/ml) of the same molecule?
Its kinase inhibition is 72% of control.

What about the kinase inhibition ([10]; 100 μg/ml) of the same molecule?
The kinase inhibition was 53% of control.

And the kinase inhibition ([11]; 1 μg/ml)?
Its kinase inhibition is 100% of control.

What about the kinase inhibition ([11]; 5 μg/ml) of the same molecule?
The kinase inhibition was 94% of control.

What about the kinase inhibition ([11]; 25 μg/ml) of the same molecule?
The kinase inhibition was 112% of control.

And the kinase inhibition ([11]; 50 μg/ml)?
The kinase inhibition was 102% of control.

What about the kinase inhibition ([11]; 100 μg/ml) of the same molecule?
Its kinase inhibition is 97% of control.

And the kinase inhibition ([12]; 1 μg/ml)?
The kinase inhibition was 136% of control.

And the kinase inhibition ([12]; 5 μg/ml)?
The kinase inhibition was 132% of control.

And the kinase inhibition ([12]; 25 μg/ml)?
Its kinase inhibition is 144% of control.

And the kinase inhibition ([12]; 50 μg/ml)?
Its kinase inhibition is 118% of control.

What about the kinase inhibition ([12]; 100 μg/ml) of the same molecule?
Its kinase inhibition is 78% of control.
